Laboratory results: ChEMBL document CHEMBL1152504, “Design and synthesis of membrane fusion inhibitors against the feline immunodeficiency virus” (Bioorg Med Chem, 2009)
The source made the active and inactive calls. The rule behind the calls is not given here.

Columns and labels:
[1] = Inhibition of Feline immunodeficiency virus Sendai-1 envelope glycoprotein gp40 assessed as inhibition of HR1-HR2 interaction after 1.5 hrs by ELISA
[2] = Inhibition of Feline immunodeficiency virus UK8 envelope glycoprotein gp40 assessed as inhibition of HR1-HR2 interaction after 1.5 hrs by ELISA
[3] = tested on: MT4; assay: Inhibition of Feline immunodeficiency virus envelope glycoprotein 40-mediated cell fusion between virus-transfected feline thymic lymphoma 3201 cells and human MT4 cells at 10 uM after 7 days; format: cell-based
[4] = Inhibition of Feline immunodeficiency virus Petaluma envelope glycoprotein gp40 assessed as inhibition of HR1-HR2 interaction after 1.5 hrs by ELISA
[5] = Inhibition of Feline immunodeficiency virus Shizuoka envelope glycoprotein gp40 assessed as inhibition of HR1-HR2 interaction after 1.5 hrs by ELISA

| IC50 [1] | IC50 [2] | IC50 [4] | IC50 [5] | Molecule | Activity [3] |
| --- | --- | --- | --- | --- | --- |
| 8.87 nM | 9.33 nM | 51.6 nM | 78.5 nM | CC[C@H](C)[C@H](NC(=O)CNC(=O)[C@H](CCC(=O)O)NC(=O)[C@H](CCC(=O)O)NC(=O)CNC(=O)[C@H](CCCCN)NC(=O)[C@H](CCCCN)NC(=O)[C@H](CC(N)=O)NC(=O)[C@H](CC(N)=O)NC(=O)[C@H](CCC(=O)O)NC(=O)[C@H](CCC(=O)O)NC(=O)[C@@H](NC(=O)[C@H](CCCCN)NC(=O)[C@H](CCCCN)NC(=O)[C@@H](NC(=O)[C@@H](NC(=O)[C@H](CCC(=O)O)NC(=O)[C@H](CCC(=O)O)NC(=O)[C@H](Cc1ccccc1)NC(=O)[C@H](CCCCN)NC(=O)[C@H](CCCCN)NC(=O)[C@H](CCC(N)=O)NC(=O)[C@H](CC(C)C)NC(=O)[C@H](CCC(=O)O)NC(=O)[C@H](CCC(=O)O)NC(=O)[C@@H](NC(=O)[C@H](CCCCN)NC(=O)[C@H](CCCCN)NC(=O)[C@H](Cc1ccc(O)cc1)NC(=O)[C@H](Cc1c[nH]c2ccccc12)NC(=O)[C@H](CCC(=O)O)NC(=O)[C@H](CCC(=O)O)NC(=O)[C@@H](N)CC(C)C)[C@@H](C)O)[C@@H](C)CC)[C@@H](C)CC)[C@@H](C)CC)C(=O)N[C@@H](CCCCN)C(=O)N[C@@H](CCCCN)C(=O)O | Active |
| – | – | > 10000 nM | – | H-GEETLKKWEEQTKKLEEKFKKIEENIKKNEEQVKKGEEQLKK-OH | – |
| 2.53 nM | 3.38 nM | 12.8 nM | 19.7 nM | H-LEEWYKKTEELQKKFEEIIKKIEENNKKGEEGLKK-OH | – |
| 22.6 nM | 5.39 nM | 16.6 nM | 115 nM | H-LEEWYKKTEELQKKFEEIIKKIEENNKKVEEGLKK-OH | – |
| 42.4 nM | 443 nM | 200 nM | 203 nM | H-LEEWYKKTEELQKKFEEIIKKIEENSKKGEEGIKK-OH | – |
| 437 nM | > 10000 nM | 2400 nM | > 10000 nM | H-LGEWYNQTKGLQQKFYEIIMDIEQNSVQGKKGIQQ-OH | – |
| 37.2 nM | 182 nM | 195 nM | 2510 nM | H-LRDWYNNTQQLQKKFYEIIYDIEQNNVQGKQGLQQ-OH | – |
| – | – | 169 nM | – | H-NEELGKKYEETKKKQEEFYKKIEEIEKKNEEVKKKLEELQKK-OH | – |
| – | – | > 10000 nM | – | H-WEEWDKKIEEYTKKIEELIKKSEEQQKKNEEELKK-OH | – |

| Molecule | IC50 [1] | IC50 [2] | IC50 [4] | IC50 [5] | Activity [3] |
| --- | --- | --- | --- | --- | --- |
| H-LGEWYNQTKDLQQKFYEIIMDIEQNNVQGKKGIQQ-OH | 183 nM | 513 nM | 1260 nM | 6310 nM | Active |
| H-LGEWYNQTKELQQKFYEIIMNIEQNNVQVKKGLQQ-OH | 646 nM | 724 nM | 708 nM | 6310 nM | – |
